From ChEMBL document CHEMBL1201862, “PubChem BioAssay data set” (2004)
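Where inhibition never reached the appropriate level, the endpoint shown equals the highest concentration tested. Otherwise, values were interpolated linearly from a five-concentration, 48-hour dose response in 96-well plates. GI50 marks 50% less growth.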 Calls of active or inactive are those of the source. No stated cut-off is given here; in the data, active = GI50 up to about 1.1 µM and inactive = higher.

Assays:
Experiment in all cases: DTP human tumour cell line panel, 48 h
ACHN = system: ACHN
IGROV-1 = system: IGROV-1
HOP-18 = system: HOP-18
HCT-116 = system: HCT-116
SK-OV-3 = system: SK-OV-3
KM-20L2 = system: KM-20L2
NCI-H522 = system: NCI-H522
SF-295 = system: SF-295
LXFL 529 = system: LXFL 529
SW-620 = system: SW-620
DMS-273 = system: DMS-273
M19-MEL = system: M19-MEL
HOP-92 = system: HOP-92
NCI-H226 = system: NCI-H226
HCC 2998 = system: HCC 2998
OVCAR-3 = system: OVCAR-3
KM12 = system: KM12
LOX IMVI = system: LOX IMVI
UACC-62 = system: UACC-62
DMS-114 = system: DMS-114
Malme-3M = system: Malme-3M
COLO 205 = system: COLO 205
XF498 = system: XF498
CCRF-CEM = system: CCRF-CEM
UACC-257 = system: UACC-257
786-0 = system: 786-0
A549 = system: A549
A498 = system: A498
SF-268 = system: SF-268
SNB-78 = system: SNB-78
SF-539 = system: SF-539
UO-31 = system: UO-31
M14 = system: M14
SK-MEL-5 = system: SK-MEL-5
HOP-62 = system: HOP-62
HCT-15 = system: HCT-15
HL-60 = system: HL-60
K562 = system: K562
OVCAR-5 = system: OVCAR-5
NCI-H23 = system: NCI-H23
DLD-1 = system: DLD-1
SNB-75 = system: SNB-75
RPMI-8226 = system: RPMI-8226
OVCAR-4 = system: OVCAR-4
SNB-19 = system: SNB-19
SK-MEL-28 = system: SK-MEL-28
EKVX = system: EKVX
HT-29 = system: HT-29
TK-10 = system: TK-10
U-251 = system: U-251
OVCAR-8 = system: OVCAR-8
SN12C = system: SN12C
MOLT-4 = system: MOLT-4
SR = system: SR
NCI-H460 = system: NCI-H460
CAKI-1 = system: CAKI-1
RXF 393 = system: RXF 393
SK-MEL-2 = system: SK-MEL-2

COc1ccc(-c2c(C3=NCCN3)nnn2-c2ccccc2)cc1
GI50 (ACHN): > 100 µM (inactive) | GI50 (IGROV-1): > 100 µM (inactive) | GI50 (HOP-18): > 100 µM (inactive) | GI50 (HCT-116): 99.1 µM (inactive) | GI50 (SK-OV-3): > 100 µM (inactive) | GI50 (KM-20L2): > 100 µM (inactive) | GI50 (NCI-H522): > 100 µM (inactive) | GI50 (SF-295): > 100 µM (inactive) | GI50 (LXFL 529): > 100 µM (inactive) | GI50 (SW-620): > 100 µM (inactive) | GI50 (DMS-273): > 100 µM (inactive) | GI50 (M19-MEL): > 100 µM (inactive) | GI50 (HOP-92): > 100 µM (inactive) | GI50 (NCI-H226): > 100 µM (inactive) | GI50 (HCC 2998): > 100 µM (inactive) | GI50 (OVCAR-3): > 100 µM (inactive) | GI50 (KM12): > 100 µM (inactive) | GI50 (LOX IMVI): > 100 µM (inactive) | GI50 (UACC-62): > 100 µM (inactive) | GI50 (DMS-114): > 100 µM (inactive) | GI50 (Malme-3M): > 100 µM (inactive) | GI50 (COLO 205): 98.9 µM (inactive) | GI50 (XF498): > 100 µM (inactive) | GI50 (CCRF-CEM): > 100 µM (inactive) | GI50 (UACC-257): > 100 µM (inactive) | GI50 (786-0): > 100 µM (inactive) | GI50 (A549): > 100 µM (inactive) | GI50 (A498): > 100 µM (inactive) | GI50 (SF-268): > 100 µM (inactive) | GI50 (SNB-78): > 100 µM (inactive) | GI50 (SF-539): > 100 µM (inactive) | GI50 (UO-31): > 100 µM (inactive) | GI50 (M14): > 100 µM (inactive) | GI50 (SK-MEL-5): > 100 µM (inactive) | GI50 (HOP-62): > 100 µM (inactive) | GI50 (HCT-15): > 100 µM | GI50 (HL-60): 67.3 µM (inactive) | GI50 (K562): > 100 µM (inactive) | GI50 (OVCAR-5): > 100 µM (inactive) | GI50 (NCI-H23): > 100 µM (inactive) | GI50 (DLD-1): > 100 µM (inactive) | GI50 (SNB-75): 98.9 µM (inactive) | GI50 (RPMI-8226): > 100 µM (inactive) | GI50 (OVCAR-4): > 100 µM (inactive) | GI50 (SNB-19): > 100 µM (inactive) | GI50 (SK-MEL-28): > 100 µM (inactive) | GI50 (EKVX): > 100 µM (inactive) | GI50 (HT-29): 91.2 µM (inactive) | GI50 (TK-10): > 100 µM (inactive) | GI50 (U-251): > 100 µM (inactive) | GI50 (OVCAR-8): > 100 µM (inactive) | GI50 (SN12C): > 100 µM (inactive) | GI50 (MOLT-4): > 100 µM (inactive) | GI50 (SR): 89.9 µM (inactive) | GI50 (NCI-H460): > 100 µM (inactive) | GI50 (CAKI-1): > 100 µM (inactive) | GI50 (RXF 393): > 100 µM (inactive) | GI50 (SK-MEL-2): > 100 µM (inactive)
